Assay results from ChEMBL document CHEMBL1150097, “Majapolene A, a cytotoxic peroxide, and related sesquiterpenes from the red alga Laurencia majuscula” (1995).

Assay: Cytotoxicity against human NCI60 cells
Format: functional

With CC1(C)CC(C23C=CC(CO)(CC2)OO3)CCC1Br (mixture of isomers) [MAJAPOLENE A] as the compound, how does the GI50 read?
Its GI50 is 400 nM.

What about the TGI of the same compound?
The TGI was 900 nM.

And the CC50 (read-out: LC50 (the source's name))?
Its CC50 is 2800 nM.
